14 compounds from ChEMBL document CHEMBL4184305, “Inhibition of histone lysine methyltransferases G9a and GLP by ejection of structural Zn(II)” (Bioorg Med Chem Lett, 2018) can be followed below.

Test [1] deals with T1, Histone-lysine N-methyltransferase EHMT1 (Homo sapiens, UniProt Q9H9B1).
T1 sequence (Q9H9B1 whole entry): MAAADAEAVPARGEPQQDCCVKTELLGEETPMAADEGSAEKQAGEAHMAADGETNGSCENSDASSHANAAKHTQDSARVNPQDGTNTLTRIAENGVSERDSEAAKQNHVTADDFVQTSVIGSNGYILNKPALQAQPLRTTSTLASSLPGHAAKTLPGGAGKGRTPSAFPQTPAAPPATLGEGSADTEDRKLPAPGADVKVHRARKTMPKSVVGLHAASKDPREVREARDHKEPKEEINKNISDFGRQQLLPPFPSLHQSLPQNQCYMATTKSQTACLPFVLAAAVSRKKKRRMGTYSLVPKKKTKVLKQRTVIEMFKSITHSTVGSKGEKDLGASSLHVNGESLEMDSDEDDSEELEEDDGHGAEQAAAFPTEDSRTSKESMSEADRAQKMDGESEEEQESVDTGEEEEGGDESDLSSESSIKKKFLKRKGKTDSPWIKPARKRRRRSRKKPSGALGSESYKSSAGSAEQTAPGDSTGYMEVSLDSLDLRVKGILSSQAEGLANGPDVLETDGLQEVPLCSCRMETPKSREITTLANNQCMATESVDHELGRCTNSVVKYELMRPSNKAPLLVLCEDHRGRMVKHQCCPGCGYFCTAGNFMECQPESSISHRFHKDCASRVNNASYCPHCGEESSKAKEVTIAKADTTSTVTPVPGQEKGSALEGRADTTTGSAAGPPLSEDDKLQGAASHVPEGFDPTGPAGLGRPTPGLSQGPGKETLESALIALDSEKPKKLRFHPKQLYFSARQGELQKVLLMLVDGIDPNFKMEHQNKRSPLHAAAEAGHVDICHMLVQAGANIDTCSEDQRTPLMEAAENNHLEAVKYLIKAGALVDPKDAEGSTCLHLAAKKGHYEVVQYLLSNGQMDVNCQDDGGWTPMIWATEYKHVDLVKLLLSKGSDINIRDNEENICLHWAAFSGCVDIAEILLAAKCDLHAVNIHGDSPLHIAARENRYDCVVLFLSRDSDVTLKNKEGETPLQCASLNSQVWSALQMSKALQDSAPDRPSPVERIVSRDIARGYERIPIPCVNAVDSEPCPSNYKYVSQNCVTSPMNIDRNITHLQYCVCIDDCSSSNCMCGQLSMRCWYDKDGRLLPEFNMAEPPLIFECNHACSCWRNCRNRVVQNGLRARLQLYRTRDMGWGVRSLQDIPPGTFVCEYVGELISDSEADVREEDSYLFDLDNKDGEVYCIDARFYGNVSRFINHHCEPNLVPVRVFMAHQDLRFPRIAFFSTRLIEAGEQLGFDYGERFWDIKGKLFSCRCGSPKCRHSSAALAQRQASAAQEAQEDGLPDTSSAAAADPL
Nature of the test: Inhibition of wild type recombinant human histone lysine methyltransferase GLP (951 to 1235 residues) expressed in Escherichia coli Rosetta BL21 DE3 PlysS using ARTKQTARKSTGGKA as substrate preincubated for 5 mins followed by substrate/SAM addition measured after 60 mins by MALDI-TOF MS analysis.

The target in test [2] is T2, Histone-lysine N-methyltransferase EHMT1 (Homo sapiens) (UniProt Q9H9B1).
T2 sequence (whole entry): T1 sequence (Q9H9B1 whole entry)
Nature of the test: Inhibition of wild type recombinant human histone lysine methyltransferase GLP (951 to 1235 residues) expressed in Escherichia coli Rosetta BL21 DE3 PlysS assessed as zinc ions ejection from Cys4-Zn finger at 100 uM by FluoZin-3 based fluorescence assay.

Test [3] concerns the target T3, Histone-lysine N-methyltransferase EHMT2 (Homo sapiens) (UniProt Q96KQ7).
T3 sequence (whole entry): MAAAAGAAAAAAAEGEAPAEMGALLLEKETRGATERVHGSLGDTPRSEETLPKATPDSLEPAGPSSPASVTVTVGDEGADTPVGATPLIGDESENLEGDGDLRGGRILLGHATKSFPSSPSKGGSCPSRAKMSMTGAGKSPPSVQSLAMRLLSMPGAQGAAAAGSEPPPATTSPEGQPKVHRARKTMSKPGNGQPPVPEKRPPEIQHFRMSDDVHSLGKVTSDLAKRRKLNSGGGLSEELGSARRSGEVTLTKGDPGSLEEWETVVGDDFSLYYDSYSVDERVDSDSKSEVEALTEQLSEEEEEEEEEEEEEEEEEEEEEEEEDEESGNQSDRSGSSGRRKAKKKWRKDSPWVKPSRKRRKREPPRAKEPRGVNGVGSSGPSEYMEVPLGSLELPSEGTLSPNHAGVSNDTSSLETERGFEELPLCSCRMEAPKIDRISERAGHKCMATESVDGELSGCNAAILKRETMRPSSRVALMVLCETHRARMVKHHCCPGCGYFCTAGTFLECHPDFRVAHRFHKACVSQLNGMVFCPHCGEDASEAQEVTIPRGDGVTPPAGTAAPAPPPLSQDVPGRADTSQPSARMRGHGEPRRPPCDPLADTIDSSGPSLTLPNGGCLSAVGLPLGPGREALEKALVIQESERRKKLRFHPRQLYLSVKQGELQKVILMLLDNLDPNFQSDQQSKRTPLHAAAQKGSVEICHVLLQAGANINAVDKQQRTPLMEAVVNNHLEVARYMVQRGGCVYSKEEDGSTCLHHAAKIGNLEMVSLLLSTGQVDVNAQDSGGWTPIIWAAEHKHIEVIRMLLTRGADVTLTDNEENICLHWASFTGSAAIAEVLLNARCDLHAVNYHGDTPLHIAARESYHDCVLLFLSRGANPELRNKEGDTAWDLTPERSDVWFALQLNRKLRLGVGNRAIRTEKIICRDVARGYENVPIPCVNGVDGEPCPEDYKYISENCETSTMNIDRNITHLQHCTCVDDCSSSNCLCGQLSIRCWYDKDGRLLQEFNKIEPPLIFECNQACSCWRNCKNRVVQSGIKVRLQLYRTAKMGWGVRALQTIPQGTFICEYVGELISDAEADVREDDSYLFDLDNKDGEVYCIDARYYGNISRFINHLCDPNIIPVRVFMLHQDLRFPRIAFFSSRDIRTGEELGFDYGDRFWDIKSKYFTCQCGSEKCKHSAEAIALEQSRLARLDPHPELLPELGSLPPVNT
Put plainly: Inhibition of wild type recombinant human histone lysine methyltransferase G9a (913 to 1193 residues) expressed in Escherichia coli Rosetta BL21 DE3 PlysS at 100 uM using ARTKQTARKSTGGKA as substrate preincubated for 5 mins followed by substrate/SAM addition measured after 60 mins by MALDI-TOF MS analysis.

Test [4] concerns the target T2, Histone-lysine N-methyltransferase EHMT1 (Homo sapiens). Nature of the test: Inhibition of wild type recombinant human histone lysine methyltransferase GLP (951 to 1235 residues) expressed in Escherichia coli Rosetta BL21 DE3 PlysS at 10 uM using ARTKQTARKSTGGKA as substrate preincubated for 5 mins followed by substrate/SAM addition measured after 60 mins by MALDI-TOF MS analysis.

In test [5] the target is T3, Histone-lysine N-methyltransferase EHMT2 (Homo sapiens). Put plainly: Inhibition of wild type recombinant human histone lysine methyltransferase G9a (913 to 1193 residues) expressed in Escherichia coli Rosetta BL21 DE3 PlysS assessed as zinc ions ejection from Cys4-Zn finger at 100 uM by FluoZin-3 based fluorescence assay.
For test [6], the target named is T2, Histone-lysine N-methyltransferase EHMT1 (Homo sapiens). Put plainly: Inhibition of wild type recombinant human histone lysine methyltransferase GLP (951 to 1235 residues) expressed in Escherichia coli Rosetta BL21 DE3 PlysS at 100 uM using ARTKQTARKSTGGKA as substrate preincubated for 5 mins followed by substrate/SAM addition measured after 60 mins by MALDI-TOF MS analysis.

The target of test [7] is T3, Histone-lysine N-methyltransferase EHMT2 (Homo sapiens). Put plainly: Inhibition of wild type recombinant human histone lysine methyltransferase G9a (913 to 1193 residues) expressed in Escherichia coli Rosetta BL21 DE3 PlysS at 10 uM using ARTKQTARKSTGGKA as substrate preincubated for 5 mins followed by substrate/SAM addition measured after 60 mins by MALDI-TOF MS analysis.

Test [8] addresses T4, Histone-lysine N-methyltransferase EHMT2 (Homo sapiens, UniProt Q96KQ7).
T4 sequence (Q96KQ7 whole entry): T3 sequence (whole entry)
Nature of the test: Inhibition of wild type recombinant human histone lysine methyltransferase G9a (913 to 1193 residues) expressed in Escherichia coli Rosetta BL21 DE3 PlysS using ARTKQTARKSTGGKA as substrate preincubated for 5 mins followed by substrate/SAM addition measured after 60 mins by MALDI-TOF MS analysis.

Where a name gives a salt, the structure may show the parent alone. Active and inactive are the calls of the source. The calls are words filed in the database; no cut-off is given here.

Turning to `O=[Se](O)c1ccccc1` [BENZENE SELENOIC ACID], the figures for the IC50 in test [1] and in test [8] were 4900 nM and 4.4 µM, respectively. Moreover, the inhibition entry in test [2] and in test [5] was “Active” in each case. The inhibition in test [3] and in test [6] was over 50% in each case. Further, the inhibition entry in test [4] and in test [7] was “inactive” each time.

For the compound `c1ccc(SSc2ccccn2)nc1`, the IC50 (usually the concentration needed to halve the response being measured) in test [1] stood at 2700 nM; in test [8], 0.65 µM. For the same compound, the inhibition result in test [2] and in test [5] was “Active” each time. In addition, the inhibition in test [3] and in test [6] was over 50% in each case. Also, the inhibition result in test [4] and in test [7] was “inactive” each time.

For `NC(=O)/N=N/C(N)=O` [E927A], the results for the IC50 in test [1] and in test [8] were 1700 nM and 0.5 µM, respectively. In addition, the inhibition result in test [2] and in test [5] was “Active” throughout. Further, the inhibition in test [3] and in test [6] was over 50% throughout. Also, the inhibition entry in test [4] and in test [7] was “inactive” each time.

Regarding `NCCS` [CYSTEAMINE], the IC50 in test [1] is over 100000 nM; in test [8], over 100 µM. In addition, the inhibition entry in test [2] and in test [5] was “Active” in each case. Besides, the inhibition result in test [4] and in test [7] was “inactive” each time.

`CCN(CC)C(=S)S` [DITIOCARB SODIUM]: the results for the IC50 in test [1] and in test [8] were 81000 nM and 9.2 µM, respectively. Also, the inhibition result in test [2] and in test [5] was “Active” in each case. Besides, the inhibition in test [3] and in test [6] was over 50% in each case. For the same compound, the inhibition entry in test [4] and in test [7] was “inactive” throughout.

Take `O=C1c2ccccc2C(=O)C1(O)O`: the concentration for half-maximal inhibition (IC50) in test [1] is over 100000 nM; in test [8] it was 54 µM. Further, the inhibition result in test [2] and in test [5] was “Active” each time. The inhibition entry in test [4] and in test [7] was “inactive” throughout. In addition, the inhibition (usually the percentage by which the read-out fell short of the control) in test [6] came out at 40%.

With `C[S+](C)[O-]`, the inhibition result in test [2] and in test [5] was “Active” throughout.

Take `NCCSSCCN` [CYSTAMINE DIHYDROCHLORIDE]: the figures for the IC50 in test [1] and in test [8] were over 100000 nM and 15 µM, respectively. For the same compound, the inhibition entry in test [2] and in test [5] was “Active” each time. Besides, the inhibition entry in test [4] and in test [7] was “inactive” in each case.

Turning to `N[C@@H](CCC(=O)N[C@@H](CS)C(=O)NCC(=O)O)C(=O)O` [GLUTATHIONE], the IC50 in test [1] is over 100000 nM; in test [8], over 100 µM. Besides, the inhibition entry in test [2] and in test [5] was “Active” throughout. The inhibition entry in test [4] and in test [7] was “inactive” throughout.

As to `CN(C)C(=S)SSC(=S)N(C)C` [THIRAM], the IC50 was 1100 nM in test [1] and 0.55 µM in test [8]. The inhibition result in test [2] and in test [5] was “Active” each time. In addition, the inhibition in test [3] and in test [6] was over 50% throughout. In addition, the inhibition entry in test [4] and in test [7] was “inactive” throughout.

Regarding `Cl[Se]c1ccccc1`, the IC50 in test [1] was 1100 nM; in test [8], 1.2 µM. For the same compound, the inhibition result in test [2] and in test [5] was “Active” each time. Moreover, the inhibition in test [3] and in test [6] was over 50% throughout. The inhibition result in test [4] and in test [7] was “inactive” in each case.

Regarding `COc1cc2c(NC3CCN(C(C)C)CC3)nc(C3CCCCC3)nc2cc1OCCCN1CCCC1`, the inhibition result in test [2] and in test [5] was “Active” throughout.

`O=[Se](=O)(O)O` [SODIUM SELENATE]: the results for the IC50 in test [1] and in test [8] were over 100000 nM and over 100 µM, respectively. In addition, the inhibition entry in test [2] and in test [5] was “Active” in each case. The inhibition in test [3] and in test [6] was 10% throughout. In addition, the inhibition entry in test [4] and in test [7] was “inactive” throughout.

With `O=C1c2ccccc2C(=O)N1[Se]c1ccccc1`, the figures for the IC50 in test [1] and in test [8] were 1000 nM and 0.45 µM, respectively. The inhibition entry in test [2] and in test [5] was “Active” each time. Further, the inhibition in test [3] and in test [6] was over 50% throughout. The inhibition result in test [4] and in test [7] was “inactive” throughout.
